In one experiment the target is human IRAK-4 (Homo sapiens (Human), UniProt Q9NWZ3). Briefly: Measurement of human IRAK-4 inhibitory activity (TR-FRET, peptide substrate phosphorylation, 10 μM ATP). It is filed as biochemical. The settings on record: 1 nM IRAK-4, 10 μM ATP, 23° C., 30 minutes; average values. The procedure, abridged:
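With 1 nM IRAK-4, 0.5 μM biotinylated peptide and 10 μM ATP, compound incubated 30 min at 23 °C in 50 mM HEPES pH 7.2 with Mg2+/Mn2+. Stopped with EDTA plus europium-cryptate anti-phosphopeptide antibody and streptavidin-XL665, 60 min at 23 °C. Activity taken as the 665/620 nm TR-FRET ratio.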
Background: Time-resolved FRET reads energy transfer from a long-lived donor to a nearby acceptor.

Experiment [1] concerns LPS-stimulated TNFα production in THP-1 cells. The experiment is described as follows: LPS-stimulated TNFα production inhibition test using human acute monocytic leukemia cell strain THP-1. Type of experiment: cell-based. The settings on record: LPS 2.5 ng/mL, average values. The procedure, abridged:
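THP-1 cells were preincubated with compound for 1 h at 37 °C, then stimulated with LPS (2.5 ng/mL final) for 4 h. Supernatant TNFα was quantified by HTRF (620/665 nm ratio) against a calibration curve. IC50 came from a 4-parameter logistic fit, with no-LPS set as 100% and no-compound as 0% suppression.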

Sequence of human IRAK-4 (Q9NWZ3 whole entry): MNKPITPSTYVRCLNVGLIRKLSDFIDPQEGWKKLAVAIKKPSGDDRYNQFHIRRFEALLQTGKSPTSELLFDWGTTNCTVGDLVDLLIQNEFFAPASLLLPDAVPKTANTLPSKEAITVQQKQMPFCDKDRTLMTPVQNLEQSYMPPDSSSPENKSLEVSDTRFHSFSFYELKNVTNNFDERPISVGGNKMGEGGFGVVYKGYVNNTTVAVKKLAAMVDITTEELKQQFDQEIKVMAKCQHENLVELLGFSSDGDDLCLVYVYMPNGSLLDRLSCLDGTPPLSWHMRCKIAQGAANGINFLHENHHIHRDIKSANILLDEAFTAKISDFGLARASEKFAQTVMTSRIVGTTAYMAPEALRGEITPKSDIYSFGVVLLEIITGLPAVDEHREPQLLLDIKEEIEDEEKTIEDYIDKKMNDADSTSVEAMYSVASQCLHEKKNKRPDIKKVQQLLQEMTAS

`CC(C)[C@@H]1[C@H](O)CCCN1C1CC(C(=O)Nc2nc3ccc(-c4cnc(CO[C@H]5CCC[C@@H]5O)nc4)cc3s2)C1` (stereo partly shown) [b-02-85]: the IC50 against human IRAK-4 was determined as 1.88 nM; in experiment [1] (Homo sapiens, THP-1, 4 h), 127 nM.
On to `O=C(Nc1nc2ccc(-c3cnc(CO[C@H]4CCC[C@@H]4O)nc3)cc2s1)C1CC(N2CCN(C3CC3)CC2)C1` (stereo partly shown) [b-02-28], for which the IC50 at human IRAK-4 is 2.17 nM; in experiment [1] (Homo sapiens, THP-1, 4 h), 103 nM.
On to `O=C(Nc1nc2ccc(-c3cnc(CO[C@H]4CCC[C@@H]4O)nc3)cc2s1)C1CC(N2CC[C@H](O)C2)C1` (stereo partly shown) [b-02-40], for which the IC50 turned out to be 1.62 nM against human IRAK-4 and 139 nM in experiment [1] (Homo sapiens, THP-1, 4 h).
For `C[C@H]1CN(C(=O)c2ccccc2)CCN1[C@H]1C[C@@H](C(=O)Nc2cc3cc(-c4cnc(CO[C@H]5CCC[C@@H]5O)nc4)ccn3n2)C1` [e-02-09] the same measures were 1.09 nM and 65 nM.
As to `O=C(Nc1nc2ccc(-c3cnc(CO[C@H]4CCC[C@@H]4O)nc3)cc2s1)C1CC(N2CC(F)C2)C1` (stereo partly shown) [b-01-02], the IC50 against human IRAK-4 stood at 3.33 nM; in experiment [1] (4 hours), 177 nM.
For the molecule `CCC(=O)N1CCN([C@H]2C[C@@H](C(=O)Nc3nc4ccc(-c5cnc(CO[C@H]6CCC[C@@H]6O)nc5)cc4s3)C2)[C@@H](C)C1` [b-05-05], the IC50 stood at 1.95 nM at human IRAK-4 and 50 nM in experiment [1] (Homo sapiens, THP-1, 4 h).
In the case of `O=C(Nc1nc2ccc(-c3cnc(CO[C@H]4CCC[C@@H]4O)nc3)cc2s1)C1CC(N2CCc3ccccc32)C1` (stereo partly shown) [b-02-66], the IC50 at human IRAK-4 stood at 5 nM; in experiment [1] (Homo sapiens, THP-1, 4 h), 227 nM.
Regarding `C[C@H]1CN(C(=O)C2CC2)CCN1[C@H]1C[C@@H](C(=O)Nc2nc3ccc(-c4cnc(CO[C@H]5CCC[C@@H]5O)nc4)cc3s2)C1` [b-05-02], the IC50 was determined as 2.47 nM on human IRAK-4 and 56 nM in experiment [1] (Homo sapiens, THP-1, 4 h).
On to `C[C@H]1CN(C(=O)c2ccccn2)CCN1[C@H]1C[C@@H](C(=O)Nc2nc3ccc(-c4cnc(CO[C@H]5CCC[C@@H]5O)nc4)cc3s2)C1` [b-04-11], for which the IC50 against human IRAK-4 was 1.89 nM; in experiment [1] (Homo sapiens, THP-1, 4 h) it was 38 nM.
Consider `COc1c(-c2cnc(CO[C@H]3CCC[C@@H]3O)nc2)ccn2nc(NC(=O)C3CC3)cc12` [e-04-01, N-(5-(2-((((1S,2S)-2-Hydroxycyclopentyl)oxy)methyl)pyrimidin-5-yl)-4-methoxypyrazolo[1,5-a]pyridin-2-yl)cyclopropanecarboxamide], for which the IC50 against human IRAK-4 turned out to be 3.74 nM; in experiment [1] (Homo sapiens, THP-1, 4 h), 431 nM.
For `C[C@H]1CN(C(=O)c2cccnc2)CCN1[C@H]1C[C@@H](C(=O)Nc2nc3ccc(-c4cnc(CO[C@H]5CCC[C@@H]5O)nc4)cc3s2)C1` [b-04-12] the same measures were 1.93 nM and 39 nM.
Take `O=C(Nc1nc2ccc(-c3cnc(CO[C@H]4CCC[C@@H]4O)nc3)cc2s1)C1CC(N2CCC[C@H]2C(F)(F)F)C1` (stereo partly shown) [b-02-44]: the IC50 against human IRAK-4 is 3.93 nM; in experiment [1] (Homo sapiens, THP-1, 4 h), 143 nM.
The matching figures for `C[C@H]1CN(C(=O)Nc2ccccc2)CCN1[C@H]1C[C@@H](C(=O)Nc2nc3ccc(-c4cnc(CO[C@H]5CCC[C@@H]5O)nc4)cc3s2)C1` [b-06-02]: 4.19 nM and 46 nM.
The matching figures for `COCCOc1c(-c2cnc(CO[C@H]3CCC[C@@H]3O)nc2)ccc2nc(NC(=O)C3CC3)sc12` [c-04-03]: 12.4 nM and 184 nM.
For `CCCOCc1ncc(-c2ccn3nc(NC(=O)[C@H]4C[C@@H](N5CCN(C(=O)c6ccnc(C(F)(F)F)c6)C[C@@H]5C)C4)cc3c2)cn1` [e-02-17] the same measures were 1.36 nM and 200 nM.
Turning to `CN(CC(F)F)C1CC(C(=O)Nc2nc3ccc(-c4cnc(CO[C@H]5CCC[C@@H]5O)nc4)cc3s2)C1` (stereo partly shown) [b-02-53], the IC50 amounted to 2.59 nM against human IRAK-4 and 172 nM in experiment [1] (Homo sapiens, THP-1, 4 h).
For `C[C@H]1CN(C2CC(C(=O)Nc3nc4ccc(-c5cnc(CO[C@H]6CCC[C@@H]6O)nc5)cc4s3)C2)CCO1` (stereo partly shown) [b-02-07] the same measures were 2.28 nM and 164 nM.
For `C[C@H]1CN(C(=O)c2ccnnc2)CCN1[C@H]1C[C@@H](C(=O)Nc2nc3ccc(-c4cnc(CO[C@H]5CCC[C@@H]5O)nc4)cc3s2)C1` [b-04-28] the same measures were 1.58 nM and 72 nM.
`Cc1c(-c2cnc(CO[C@H]3CCC[C@@H]3O)nc2)ccc2nc(NC(=O)C3CC3)sc12` [c-07-01]: the IC50 came to 6.48 nM at human IRAK-4 and 347 nM in experiment [1] (Homo sapiens, THP-1, 4 h).
In the case of `CC(=O)N1CCN([C@H]2C[C@@H](C(=O)Nc3nc4ccc(-c5cnc(CO[C@H]6CCC[C@@H]6O)nc5)cc4s3)C2)[C@@H](C)C1` [b-05-01, (1R,3s)-3-((S)-4-Acetyl-2-methylpiperazin-1-yl)-N-(6-(2-((((1S,2S)-2-hydroxycyclopentyl)oxy)methyl)pyrimidin-5-yl)benzo[d]thiazol-2-yl)cyclobutane-1-carboxamide], the IC50 against human IRAK-4 was found to be 1.9 nM; in experiment [1] (Homo sapiens, THP-1, 4 h), 48 nM.
For `COc1c(-c2cnc(CO[C@H]3CCC[C@@H]3O)nc2)ccc2nc(NC(=O)[C@H]3C[C@H]3F)sc12` [c-02-04] the same measures were 3.35 nM and 261 nM.
With `CCCOCc1ncc(-c2ccn3nc(NC(=O)[C@H]4C[C@@H](N5CCN(C(=O)c6coc(C)n6)C[C@@H]5C)C4)cc3c2)cn1` [e-02-21], the concentration for half-maximal inhibition (IC50) at human IRAK-4 was 1.73 nM; in experiment [1] (Homo sapiens, THP-1, 4 h) it was 188 nM.
The matching figures for `O=C(Nc1nc2ccc(-c3cnc(CO[C@H]4CCC[C@@H]4O)nc3)cc2s1)C1CC(N2CCOC[C@H]2C(F)(F)F)C1` (stereo partly shown) [b-02-55]: 2.97 nM and 150 nM.
The matching figures for `O=C(Nc1nc2ccc(-c3cnc(CO[C@H]4CCC[C@@H]4O)nc3)cc2s1)C1CC(N2CCC3(CC2)COC3)C1` (stereo partly shown) [b-02-74]: 1.57 nM and 189 nM.
As for `COc1c(-c2cnc(CO[C@H]3CCC[C@@H]3O)nc2)ccc2nc(NC(=O)[C@H]3C[C@@](C)(O)C3)sc12` [c-02-05], the IC50 was determined as 4.64 nM at human IRAK-4 and 175 nM in experiment [1] (Homo sapiens, THP-1, 4 h).
Turning to `CC(=O)N1CCN([C@H]2C[C@@H](C(=O)Nc3cc4cc(-c5cnc(CO[C@H]6CCC[C@@H]6O)nc5)ccn4n3)C2)[C@@H](C)C1` [e-02-08], the IC50 on human IRAK-4 came to 1.32 nM; in experiment [1] (Homo sapiens, THP-1, 4 h), 165 nM.
For `O=C(Nc1nc2ccc(-c3cnc(CO[C@H]4CCC[C@@H]4O)nc3)cc2s1)C1CC(N2CCC(F)(F)CC2)C1` (stereo partly shown) [b-02-04] the same measures were 3.64 nM and 146 nM.
The matching figures for `C[C@H]1CN(C(=O)c2ccnc(C(F)(F)F)c2)CCN1[C@H]1C[C@@H](C(=O)Nc2nc3ccc(-c4cnc(CO[C@H]5CCC[C@@H]5O)nc4)cc3s2)C1` [b-04-35]: 2.08 nM and 37 nM.
The matching figures for `C[C@H]1CN(C(=O)CC2CCOCC2)CCN1[C@H]1C[C@@H](C(=O)Nc2nc3ccc(-c4cnc(CO[C@H]5CCC[C@@H]5O)nc4)cc3s2)C1` [b-04-04]: 2.69 nM and 49 nM.
In the case of `CCCOCc1ncc(-c2ccn3nc(NC(=O)[C@H]4C[C@@H](N5CCN(C(=O)c6cccc(C)n6)C[C@@H]5C)C4)cc3c2)cn1` [e-02-18], the concentration for half-maximal inhibition (IC50) on human IRAK-4 was found to be 1.84 nM; in experiment [1] (Homo sapiens, THP-1, 4 h), 200 nM.
The matching figures for `O=C(Nc1nc2ccc(-c3cnc(CO[C@H]4CCC[C@@H]4O)nc3)cc2s1)C1CC(N2CCOCC2C2CC2)C1` (stereo partly shown) [b-02-68]: 2.18 nM and 160 nM.
For `C[C@H]1COCCN1C1CC(C(=O)Nc2nc3ccc(-c4cnc(CO[C@H]5CCC[C@@H]5O)nc4)cc3s2)C1` (stereo partly shown) [b-02-06] the same measures were 1.34 nM and 66 nM.
On to `C[C@H]1CN(C(=O)c2ccon2)CCN1[C@H]1C[C@@H](C(=O)Nc2cc3cc(-c4cnc(CO[C@H]5CCC[C@@H]5O)nc4)ccn3n2)C1` [e-02-26], for which the IC50 stood at 1.86 nM on human IRAK-4 and 80 nM in experiment [1] (Homo sapiens, THP-1, 4 h).
As for `O=C(Nc1nc2ccc(-c3cnc(CO[C@H]4CCC[C@@H]4O)nc3)cc2s1)C1CC(N2CCOC[C@@H]2C(F)(F)F)C1` (stereo partly shown) [b-02-54], the IC50 was found to be 3.46 nM against human IRAK-4 and 135 nM in experiment [1] (Homo sapiens, THP-1, 4 h).
For `Cn1cc(NC2CC(C(=O)Nc3nc4ccc(-c5cnc(CO[C@H]6CCC[C@@H]6O)nc5)cc4s3)C2)cn1` (stereo partly shown) [b-02-65] the same measures were 2.38 nM and 163 nM.
The matching figures for `COc1c(-c2cnc(CO[C@H]3CCC[C@@H]3O)nc2)ccc2nc(NC(=O)[C@H]3C[C@@H](N4CCN(C(=O)OC(C)(C)C)C[C@@H]4C)C3)sc12` [c-03-01, tert-Butyl (S)-4-((1s,3R)-3-((6-(2-((((1S,2S)-2-hydroxycyclopentyl)oxy)methyl)pyrimidin-5-yl)-7-methoxybenzo[d]thiazol-2-yl)carbamoyl)cyclobutyl)-3-methylpiperazine-1-carboxylate]: 16.6 nM and 49 nM.
Take `CCCOCc1ncc(-c2ccc3nc(NC(=O)[C@H]4C[C@@H](N5CCN(C(=O)C6CCOC6)C[C@@H]5C)C4)sc3c2)cn1` (stereo partly shown) [b-04-25]: the IC50 at human IRAK-4 is 0.88 nM; in experiment [1] (Homo sapiens, THP-1, 4 h), 71 nM.
The matching figures for `CN(C1CC(C(=O)Nc2nc3ccc(-c4cnc(CO[C@H]5CCC[C@@H]5O)nc4)cc3s2)C1)[C@@H]1C[C@H]1C(F)(F)F` (stereo partly shown) [b-03-07]: 5.26 nM and 183 nM.
The matching figures for `CCCOCc1ncc(-c2ccn3nc(NC(=O)[C@H]4C[C@@H](N5CCN(C(=O)C6CCOC6)C[C@@H]5CC)C4)cc3c2)cn1` (stereo partly shown) [e-02-15]: 1.81 nM and 167 nM.
As to `O=C(Nc1nc2ccc(-c3cnc(COC4CCC4)nc3)cc2s1)C1CC1` [a-04-03], the IC50 on human IRAK-4 worked out at 2.32 nM; in experiment [1] (Homo sapiens, THP-1, 4 h), 355 nM.
The matching figures for `C[C@@H]1C[C@H]1C(=O)Nc1cc2cc(-c3cnc(CO[C@H]4CCC[C@@H]4O)nc3)ccn2n1` [e-01-03]: 1.03 nM and 171 nM.

In general, IC50 refers to the point on the concentration scale where inhibition reaches its midpoint.

The record behind these values is patent US20240025893A1, “PYRIMIDINE-AND NITROGEN-CONTAINING BICYCLIC COMPOUND” (Asahi Kasei Pharma Corporation, priority 2020, published 2024).
